Data taken from patent US20160038498A1, “METHODS FOR THE TREATMENT OF CANCER” (The Translational Genomics Research Institute, priority 2013, published 2016).
pIC50: −log10 of the molar value.

Assays:
H295R cells [1] = assay: Caspase 3/7 Glo assay for apoptosis; type: cell-based; details: for induction of apoptosis (caspase 3/7 activity), single compound: H295R (wild type p53), 8, 16, 24 and 48 hours
Protocol: (§1) ACC cell lines were plated and 24 hours later, 0.5 μM, 1 μM, 2.5 μM, and 5 μM of doxorubicin was added to the cultures. […] Data was normalized to cells alone, then to vehicle alone and expressed as a percentage of vehicle alone. […] H295R cells were plated at a density of 1750 cells/well in 40 μl of medium and SW-13 was plated at 1250 cells/wells in 40 μl DMEM with 2% FBS. […] Percent caspase 3/7 activity was normalized to cells and to DMSO control. […] […] Doxorubicin (Tocris, Minneapolis, Minn.) was used as a positive control for induction of apoptosis.

SW-13 cells [2] = assay: Caspase 3/7 Glo assay for apoptosis; type: cell-based; details: for induction of apoptosis (caspase 3/7 activity), single compound: SW-13 (mutant p53), 8, 16, 24 and 48 hours
Protocol: as §1

BD140 lines = assay: Caspase 3/7 Glo assay for apoptosis; type: cell-based
Protocol: ACC cell lines SW-13 and H295R were obtained from ATCC and authenticated by STR analysis on Aug. 24, 2012. BD140 lines (A-C) represent distinct subclones established from the tumor of ACC140. BD167 was also established. They are positive for DHEAS expression, confirming adrenocortical origin. SW-13 and the […] were grown in DMEM supplemented with 10% FBS, 1% L-glutamine, 1% […] (ITS), and penicillin-streptomycin. BD140-A, BD140-B and BD167 were grown in RPMI supplemented with 10% FBS, 1% L-glutamine, 1% ITS, and penicillin-streptomycin. H295R was grown in DMEM:F12 supplemented with 2.5% NuSerum, 1% L-glutamine, 1% ITS, and penicillin-streptomycin. All cells lines were grown at 37° C. in a 5% CO2 atmosphere.
ACC cell lines were plated and 24 hours later, 0.5 μM, 1 μM, 2.5 μM, and 5 μM of doxorubicin was added to the cultures. The activity of caspases 3 and 7 was assessed using Caspase 3/7 Glo (Promega, Madison, Wis.) at 8, 24, and 48 hours after drug addition according to manufacturer's instructions. Data was normalized to cells alone, then to vehicle alone and expressed as a percentage of vehicle alone.

H295R cells [3] = assay: In vitro drug dose-response, cell viability by CellTiter Glo; type: cell-based
Protocol: (§2) H295R cells were plated at a density of 1750 cells/well in 40 μl of medium and SW-13 cells were plated at 1250 cells/wells in 40 μl DMEM with 2% FBS in white 384-well plates and allowed to attach for 24 hours. […] Cell viability was normalized to cells alone and DMSO controls. […].
(§3) Dose response curves and IC50 values for cell survival in the presence of the drugs were calculated using Prism software (GraphPad) using the log(inhibitor) vs. response—4 parameter function which fits the following equation: Y=Bottom+(Top-Bottom)/[1+10̂(X−Log IC50)] where X is the logarithm of concentration and Y is the percent cell survival. Y starts at the top and goes to bottom with a sigmoid shape as X increases. All experiments were done at least three technical replicates and values are represented as averages with standard error.

SW-13 cells [4] = assay: as above; type: cell-based
Protocol: as §2, §3

TP53 (p53) transcript = assay: RT-qPCR of p53 mRNA levels; type: cell-based; details: either of the two cell lines (H295R, SW-13)
Protocol: (§4) 6×10^5 SW-13 and 7.5×10^5 H295R cells were plated in 10 cm^2 dishes in 10 ml of media. […] Total RNA was extracted 24 hours later using the mirVana miRNA Isolation Kit (Ambion, Inc, Grand Island, N.Y.) as per the manufacturer's protocol.
(§5) Total RNA was reverse transcribed utilizing both random hexamer and oligo-dT primers and the RT^2 First Strand cDNA Synthesis Kit (SABiosciences, Valencia, Calif.). The resulting cDNA was amplified on the iQ5 Real-Time PCR Detection System (Bio-Rad Laboratories, Inc, Hercules, Calif.) using primer sets for TP53 (p53), CDKN1A (p21) and ACTB (β-actin) and RT^2 SYBR Green Master Mix (all from SABiosciences, Valencia, Calif.) and run according to manufacturer's instructions. Melting curve analysis was performed to evaluate primer set specificity. Fold difference relative to […], which was used as the reference gene, was calculated using the Pfaffl method taking into account reaction efficiencies.

CDKN1A (p21) transcript = assay: RT-qPCR of p21 mRNA levels; type: cell-based
Protocol: as §4, §5

MDM2 protein = assay: Western blot of MDM2 protein after BI-2536; type: cell-based; details: H295R and SW-13; BI-2536 24 hours
Protocol: 6×10^5 SW-13 and 7.5×10^5 H295R cells were plated in 10 cm^2 dishes in 10 ml of media. […] Cells were lysed with RIPA buffer with protease and phosphatase inhibitors, and the resulting protein lysate quantitated by BCA (Pierce, Thermo Scientific, Pittsburgh, Pa.). Thirty micrograms of protein were loaded onto 4-12% Bis-Tris pre-cast gels (Invitrogen, Carlsbad, Calif.) and allowed to separate at 150V for 1 hour. The gels were then transferred onto PVDF membranes for 7 minutes using the iBLOT western transfer system (Invitrogen, Carlsbad, Calif.) at room temperature. […] The membranes were developed using the SuperSignal West Femto Chemiluminescent Substrate (Pierce, Thermo Scientific, Pittsburgh, Pa.) and were visualized and quantitated with the Bio Spectrum 500 Imaging System (UVP, Cambridge, UK).
The blots were processed as described above for the detection of β-Actin (AbCam, Cambridge, Mass.) in 5% blocking solution which was used as an internal loading control. […] The actin membranes were also detected using the SuperSignal West Femto Chemiluminescent Substrate (Pierce, Thermo Scientific, Pittsburgh, Pa.) and were visualized and quantitated with the Bio Spectrum 500 Imaging System (UVP, Cambridge, UK) and relative amounts of PLK-1, MDM2 and p53 protein are reported relative to β-Actin. […]

adrenocortical carcinoma = details: cited from earlier work

Compound: COc1cccc2c1C(=O)c1c(O)c3c(c(O)c1C2=O)C[C@@](O)(C(=O)CO)C[C@@H]3O[C@H]1C[C@H](N)[C@H](O)[C@H](C)O1 [doxorubicin]
- caspase 3/7 activation (apoptosis) following doxorubicin exposure (H295R cells [1]; H295R, 0.5-5 μM, 8, 24, 48 hours): delayed
- time to significant induction of caspase 3/7 activation following doxorubicin exposure (SW-13 cells [2]; SW-13, 0.5-5 μM): ≤ 8 h
- induction of caspase 3/7 activity (BD140 lines; 0.5 μM and 1 μM): not seen until 48 hours
- induction of caspase 3/7 activity (BD140 lines; 2.5 μM and 5 μM, by 24 hours): moderate induction

Compound: COc1ccc(C2=N[C@@H](c3ccc(Cl)cc3)[C@@H](c3ccc(Cl)cc3)N2C(=O)N2CCNC(=O)C2)c(OC(C)C)c1 [nutlin-3]
- cell viability (in words) (H295R cells [3]): decreased
- pIC50 (H295R cells [3]; CellTiter Glo, combination: BI-2536 kept constant at IC25, nutlin-3 serially diluted): 4.89
- cell viability (in words) (SW-13 cells [4]): decreased
- pIC50 (SW-13 cells [4]; CellTiter Glo, 96 hours, combination: BI-2536 kept constant at IC25, nutlin-3 serially diluted): 4.70
- induction of apoptosis (caspase 3/7 activity), single compound (H295R cells [1]): restored the apoptotic response
- induction of apoptosis (caspase 3/7 activity), single compound (SW-13 cells [2]): small increase in apoptosis

Compound: CC[C@@H]1C(=O)N(C)c2cnc(Nc3ccc(C(=O)NC4CCN(C)CC4)cc3OC)nc2N1C1CCCC1 [BI-2536]
- IC10 (cell viability) (H295R cells [3]): 0.00565 µM
- IC10 (cell viability) (SW-13 cells [4]): 0.0222 µM
- induction of apoptosis (caspase 3/7 activity), single compound (H295R cells [1]): robust induction of apoptosis
- time of maximum induction of apoptosis (SW-13 cells [2]; SW-13): 48 h
- induction of apoptosis (caspase 3/7 activity), single compound (SW-13 cells [2]): robust induction of apoptosis
- levels of p53 transcript (TP53 (p53) transcript): did not significantly affect
- transcription of CDKN1A (p21) (CDKN1A (p21) transcript; H295R, wild type p53): general trend of increased transcription
- amount of CDKN1A message (CDKN1A (p21) transcript; SW-13, mutant p53): reduced
- levels of the MDM2 protein (MDM2 protein): does not affect

Compound: Clc1ccc(C(c2ccccc2Cl)C(Cl)Cl)cc1 (stereo not shown) [mitotane]
- survival of patients whose tumors respond (adrenocortical carcinoma; improved from 14 months): 50 months
- response rate (adrenocortical carcinoma; mitotane as a single agent): 23%
- tolerability (adrenocortical carcinoma; most patients, severe toxic side effects): poorly tolerated
